Structures are written as SMILES. Values joined by “and” are separate entries in the source; they are usually repeats but may differ in a detail not shown here. Identical values can stand only once.

The source of these data is patent US7820759B2, “Micellar preparation containing sparingly water-soluble anticancer agent and novel block copolymer” (Nippon Kayaku Kabushiki Kaisha, priority 2003, dated 2010).

The test system of data set [1] is mouse colon cancer Colon 26 cells. Briefly: In vivo antitumor effect against Colon 26. Conditions: average tumor volume treated/untreated, 11 days after treatment, 30 mg/kg in terms of paclitaxel, tail vein, 5 consecutive days, female CDF1 mice. On the procedure:
Female CDF1 mice were inoculated subcutaneously at the back thereof with the mouse colon cancer Colon 26 cells, and, from the point of time when the volume of tumor has reached around 100 mm^3, micellar preparation 10 according to the invention, the micellar composition from Comparative Example, or paclitaxel was administered through the tail veins of the mice for consecutive 5 days to examine effects against advanced cancer. Each agent was used directly, or after dilution with saline before use. The concentration of each agent was expressed in terms of paclitaxel. The antitumor effect of agent was judged on the basis of a percentage of the average tumor volume in treated group to the average tumor volume in untreated group (T/C %) 11 days after agent treatment.

The nature of data set [2]: Transition of paclitaxel concentrations in the rat plasma. Type of data set: in vivo. The note with it: intravenous, 5 mg/kg paclitaxel equivalent, tail vein, male SD rats. On the procedure:
Micellar preparation 10 from Example 9 was diluted with normal saline solution to make an aqueous solution having a concentration of 2.5 mg/mL in terms of paclitaxel. Paclitaxel alone was dissolved in ethanol, to which Cremophor (Sigma) was then added in the same amount as ethanol to prepare in such a way that the concentration of paclitaxel was adjusted to 25 mg/mL, followed by dilution to 2.5 mg/mL with normal saline solution immediately before administration. Micellar preparation 10 or paclitaxel alone was administered in an amount equivalent to paclitaxel 5 mg/kg to male SD rats through their tail veins, followed by taking blood samples from their cervical veins with time. The plasma obtained by centrifugation was diluted with an appropriate amount of water and subjected to three rounds of extraction with t-butyl methyl ether. The ether layer was recovered, dried up, and then dissolved in 50 μL of actonitrile, followed by quantitating paclitaxel using HPLC.

Data set [3] concerns female CDF1 mice. Briefly: Toxicity test against mouse extension reflex (peripheral nerve impairment). The note with it: 30 mg/kg in terms of paclitaxel, tail vein, 5 consecutive days, hind limbs. Type of data set: in vivo. On the procedure:
Micellar preparation 10 or paclitaxel alone was administered to female CDF1 mice through their tail veins for consecutive 5 days to observe the extension reflex of their hind limbs providing an indication of peripheral nerve impairment due to paclitaxel. Each agent was prepared as described in Test Example 1, and used directly, or after dilution with saline before use. The dosages used were expressed in terms of paclitaxel.

`CC(=O)O[C@H]1C(=O)[C@@]2(C)[C@H]([C@H](OC(=O)c3ccccc3)[C@]3(O)C[C@H](OC(=O)[C@H](O)[C@@H](NC(=O)c4ccccc4)c4ccccc4)C(C)=C1C3(C)C)[C@]1(OC(C)=O)CO[C@@H]1C[C@@H]2O` [Paclitaxel, paclitaxel]: the “T/C (%)” value in data set [1] is 40.0% and 37.5%; in data set [1] (listed as paclitaxel alone), 37.5% and 40.0%. Besides, the AUC(0-t) in data set [2] (read-out: AUC (0-360) (converted)) is 1170 ng·h/mL. Also, in data set [2] (blood drawing time 10 min), the concentration at 10 min was found to be 1050 ng/mL. Further, the concentration at 30 min in data set [2] (blood drawing time 30 min) was 510 ng/mL. For the same compound, the concentration at 60 min in data set [2] (blood drawing time 60 min) worked out at 260 ng/mL. For the same compound, the concentration at 120 min in data set [2] (blood drawing time 120 min) was 100 ng/mL. Also, the concentration at 360 min in data set [2] (blood drawing time 360 min) came to 35 ng/mL. Moreover, the “Mice showing extension reflex disappearance” value is given as 3/3 in data set [3] and “induced the disappearance of extension reflex in all mice” in data set [3] (listed as paclitaxel alone).
